The target of the test is human TrkA receptor (Homo sapiens (Human), UniProt P04629). The test is described as follows: DiscoverX PathHunter TrkA functional assay (NGF-stimulated U2OS cells). As to conditions: U2OS cells expressing human TrkA-PK, Shc1-EA and p75NTR; compound 1 h, then NGF at ~80% of maximal response for 3 h; luminescence. Format: cell-based.

Molecules are shown by their SMILES.

Sequence of human TrkA receptor (P04629 33-796): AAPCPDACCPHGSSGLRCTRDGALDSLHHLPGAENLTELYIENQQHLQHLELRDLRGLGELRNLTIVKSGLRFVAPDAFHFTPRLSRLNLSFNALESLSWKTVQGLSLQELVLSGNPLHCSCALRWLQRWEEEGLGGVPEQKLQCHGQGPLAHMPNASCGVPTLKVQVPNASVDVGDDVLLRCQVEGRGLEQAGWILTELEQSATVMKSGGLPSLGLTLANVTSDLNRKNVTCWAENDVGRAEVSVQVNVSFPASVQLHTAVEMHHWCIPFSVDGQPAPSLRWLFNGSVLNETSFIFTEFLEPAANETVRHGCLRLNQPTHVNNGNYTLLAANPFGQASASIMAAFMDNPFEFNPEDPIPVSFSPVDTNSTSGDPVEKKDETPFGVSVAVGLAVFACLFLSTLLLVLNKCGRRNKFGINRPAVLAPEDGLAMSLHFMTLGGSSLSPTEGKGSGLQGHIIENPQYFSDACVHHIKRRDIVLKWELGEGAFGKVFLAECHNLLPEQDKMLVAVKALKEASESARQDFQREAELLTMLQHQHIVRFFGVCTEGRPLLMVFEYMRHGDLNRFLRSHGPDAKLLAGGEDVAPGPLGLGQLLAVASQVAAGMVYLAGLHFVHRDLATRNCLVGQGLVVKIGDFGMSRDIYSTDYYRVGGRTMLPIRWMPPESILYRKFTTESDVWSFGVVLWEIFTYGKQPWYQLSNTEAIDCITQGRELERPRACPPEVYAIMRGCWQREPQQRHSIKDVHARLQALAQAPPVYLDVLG

As usually defined, the IC50 is the midpoint of a concentration-inhibition curve. A low value points to inhibition by little substance. In the case of `O=C(Nc1cnc(C(=O)N2CCOCC2)nc1-c1ccccc1)c1ccc(C(F)(F)F)c(-c2cc[nH]n2)c1` [Example 88, N-(2-(morpholine-4-carbonyl)-4-phenylpyrimidin-5-yl)-3-(1H-pyrazol-3-yl)-4-(trifluoromethyl)benzamide], the IC50 was determined as 1200 nM. Under `Cn1ccc(-c2cc(C(=O)Nc3cc(C(N)=O)cnc3-c3ccccc3)ccc2C(F)(F)F)n1` [Example 89, 5-(3-(1-methyl-1H-pyrazol-3-yl)-4-(trifluoromethyl)benzamido)-6-phenylnicotinamide] stands 1.5 nM; under `CN1CC(NC(=O)c2cnc(-c3ccccc3)c(NC(=O)c3cc(-c4cc[nH]n4)c(C(F)(F)F)cc3F)c2)C1` [Example 90, 5-(2-fluoro-5-(1H-pyrazol-3-yl)-4-(trifluoromethyl)benzamido)-N-(1-methylazetidin-3-yl)-6-phenylnicotinamide], 80 nM; under `NC(=O)c1cnc(-c2ccccc2)c(NC(=O)c2cc(-c3ncccn3)c(C(F)(F)F)cc2F)c1` [Example 91, 5-(2-fluoro-5-(pyrimidin-2-yl)-4-(trifluoromethyl)benzamido)-6-phenylnicotinamide], 11 nM. Under `O=C(NCc1cccnc1)c1cnc(-c2ccccc2)c(NC(=O)c2cc(-c3ncccn3)c(C(F)(F)F)cc2F)c1` [Example 92, 5-(2-fluoro-5-(pyrimidin-2-yl)-4-(trifluoromethyl)benzamido)-6-phenyl-N-(pyridin-3-ylmethyl)nicotinamide] stands 2.2 nM. Under `NC(=O)c1cnc(-c2ccccc2)c(NC(=O)c2cc(-c3cc[nH]n3)c(C(F)(F)F)cc2F)c1` [Example 93, 5-(2-fluoro-5-(1H-pyrazol-3-yl)-4-(trifluoromethyl)benzamido)-6-phenylnicotinamide] stands 5.7 nM. `Cn1ccc(-c2cc(C(=O)Nc3cc(C(N)=O)nnc3-c3ccccc3)c(F)cc2C(F)(F)F)n1` [Example 94, 5-(2-fluoro-5-(1-methyl-1H-pyrazol-3-yl)-4-(trifluoromethyl)benzamido)-6-phenylpyridazine-3-carboxamide]: the IC50 amounted to 9.3 nM.

Turning to `CN1CC(=O)N(Cc2ncc(NC(=O)c3cc(-c4ccn(C)n4)c(C(F)(F)F)cc3F)c(-c3ccccc3)n2)C1=O` [Example 95, 2-Fluoro-5-(1-methyl-1H-pyrazol-3-yl)-N-(2-((3-methyl-2,5-dioxoimidazolidin-1-yl)methyl)-4-phenylpyrimidin-5-yl)-4-(trifluoromethyl)benzamide], the half-maximal inhibitory concentration (IC50) was 0.11 nM. With `Cn1ccc(-c2cc(C(=O)Nc3cnc(CN4C(=O)CNC4=O)nc3-c3ccccc3)c(F)cc2C(F)(F)F)n1` [Example 96, N-(2-((2,5-dioxoimidazolidin-1-yl)methyl)-4-phenylpyrimidin-5-yl)-2-fluoro-5-(1-methyl-1H-pyrazol-3-yl)-4-(trifluoromethyl)benzamide], the IC50 turned out to be 0.083 nM. The IC50 values of the last two compounds are within 1.5-fold of each other. `Cn1ccc(-c2cc(C(=O)Nc3cnc(CN4C(=O)COC4=O)nc3-c3ccccc3)c(F)cc2C(F)(F)F)n1` [Example 97, N-(2-((2,4-dioxooxazolidin-3-yl)methyl)-4-phenylpyrimidin-5-yl)-2-fluoro-5-(1-methyl-1H-pyrazol-3-yl)-4-(trifluoromethyl)benzamide]: the half-inhibitory concentration (IC50) is 0.25 nM. Compared with the last compound, the IC50 is about 3-fold higher. For `Cn1ccc(-c2cc(C(=O)Nc3ccc(CN4C(=O)CNC4=O)nc3-c3ccccc3)c(F)cc2C(F)(F)F)n1` [Example 98, N-(6-((2,5-dioxoimidazolidin-1-yl)methyl)-2-phenylpyridin-3-yl)-2-fluoro-5-(1-methyl-1H-pyrazol-3-yl)-4-(trifluoromethyl)benzamide] the value was 0.22 nM; for `Cn1ccc(-c2cc(C(=O)Nc3cnc(CC(N)=O)nc3-c3ccccc3)c(F)cc2C(F)(F)F)n1` [Example 99, N-(2-(2-Amino-2-oxoethyl)-4-phenylpyrimidin-5-yl)-2-fluoro-5-(1-methyl-1H-pyrazol-3-yl)-4-(trifluoromethyl)benzamide], 0.59 nM. For `CN(C)C(=O)Cc1ncc(NC(=O)c2cc(-c3ccn(C)n3)c(C(F)(F)F)cc2F)c(-c2ccccc2)n1` [Example 100, N-(2-(2-(Dimethylamino)-2-oxoethyl)-4-phenylpyrimidin-5-yl)-2-fluoro-5-(1-methyl-1H-pyrazol-3-yl)-4-(trifluoromethyl)benzamide] the value was 1.2 nM; for `Cn1ccc(-c2cc(C(=O)Nc3cnc(CC(N)=O)cc3-c3ccccc3)c(F)cc2C(F)(F)F)n1` [Example 101, N-(6-(2-Amino-2-oxoethyl)-4-phenylpyridin-3-yl)-2-fluoro-5-(1-methyl-1H-pyrazol-3-yl)-4-(trifluoromethyl)benzamide], 1.1 nM. Under `Cn1ccc(-c2cc(C(=O)Nc3ccc(CC(N)=O)nc3-c3ccccc3)c(F)cc2C(F)(F)F)n1` [Example 102, N-(6-(2-Amino-2-oxoethyl)-2-phenylpyridin-3-yl)-2-fluoro-5-(1-methyl-1H-pyrazol-3-yl)-4-(trifluoromethyl)benzamide] stands 0.79 nM; under `CNC(=O)Cc1ncc(NC(=O)c2ccc(C(F)(F)F)c(-c3ccn(C)n3)c2)c(-c2ccccc2)n1` [Example 103, 3-(1-methyl-1H-pyrazol-3-yl)-N-(2-(2-(methylamino)-2-oxoethyl)-4-phenylpyrimidin-5-yl)-4-(trifluoromethyl)benzamide], 4.1 nM; under `CNC(=O)Cc1ncc(NC(=O)c2cc(-c3ccn(C)n3)c(C(F)(F)F)cc2F)c(-c2ccccc2)n1` [Example 104, 2-fluoro-5-(1-methyl-1H-pyrazol-3-yl)-N-(2-(2-(methylamino)-2-oxoethyl)-4-phenylpyrimidin-5-yl)-4-(trifluoromethyl)benzamide], 0.76 nM. Compound `CCNC(=O)Cc1ncc(NC(=O)c2cc(-c3ccn(C)n3)c(C(F)(F)F)cc2F)c(-c2ccccc2)n1` [Example 105, N-(2-(2-(ethylamino)-2-oxoethyl)-4-phenylpyrimidin-5-yl)-2-fluoro-5-(1-methyl-1H-pyrazol-3-yl)-4-(trifluoromethyl)benzamide] registered a concentration for half-maximal inhibition (IC50) of 0.53 nM. For `Cn1ccc(-c2cc(C(=O)Nc3cnc(CC(=O)O)nc3-c3ccccc3)c(F)cc2C(F)(F)F)n1` [Example 106, 2-(5-(2-fluoro-5-(1-methyl-1H-pyrazol-3-yl)-4-(trifluoromethyl)benzamido)-4-phenylpyrimidin-2-yl)acetic acid] the value was 2 nM; for `Cn1ccc(-c2cc(C(=O)Nc3cnc(CC(=O)NC[C@@H]4CCCO4)nc3-c3ccccc3)c(F)cc2C(F)(F)F)n1` [Example 107, (S)-2-fluoro-5-(1-methyl-1H-pyrazol-3-yl)-N-(2-(2-oxo-2-(((tetrahydrofuran-2-yl)methyl)amino)ethyl)-4-phenylpyrimidin-5-yl)-4-(trifluoromethyl)benzamide], 1.2 nM; for `Cn1ccc(-c2cc(C(=O)Nc3cnc(CC(=O)NCCO)nc3-c3ccccc3)c(F)cc2C(F)(F)F)n1` [Example 108, 2-fluoro-N-(2-(2-((2-hydroxyethyl)amino)-2-oxoethyl)-4-phenylpyrimidin-5-yl)-5-(1-methyl-1H-pyrazol-3-yl)-4-(trifluoromethyl)benzamide], 1.5 nM. With `Cn1ccc(-c2cc(C(=O)Nc3cnc(CC(=O)N[C@H]4C[C@@H](O)C4)nc3-c3ccccc3)c(F)cc2C(F)(F)F)n1` [Example 109, 2-fluoro-N-(2-(2-(((1s,3s)-3-hydroxycyclobutyl)amino)-2-oxoethyl)-4-phenylpyrimidin-5-yl)-5-(1-methyl-1H-pyrazol-3-yl)-4-(trifluoromethyl)benzamide], the IC50 was 2.6 nM. Regarding `Cn1ccc(-c2cc(C(=O)Nc3cnc(CC(=O)N[C@H]4CCOC4)nc3-c3ccccc3)c(F)cc2C(F)(F)F)n1` [Example 110, (S)-2-fluoro-5-(1-methyl-1H-pyrazol-3-yl)-N-(2-(2-oxo-2-((tetrahydrofuran-3-yl)amino)ethyl)-4-phenylpyrimidin-5-yl)-4-(trifluoromethyl)benzamide], the IC50 amounted to 1.2 nM. `Cn1ccc(-c2cc(C(=O)Nc3cnc(CC(=O)N4CCOCC4)nc3-c3ccccc3)c(F)cc2C(F)(F)F)n1` [Example 111, 2-fluoro-5-(1-methyl-1H-pyrazol-3-yl)-N-(2-(2-morpholino-2-oxoethyl)-4-phenylpyrimidin-5-yl)-4-(trifluoromethyl)benzamide] returned an IC50 of 9.1 nM. For `Cn1ccc(-c2cc(C(=O)Nc3cnc(CC(=O)NCC4CCOC4)nc3-c3ccccc3)c(F)cc2C(F)(F)F)n1` (centres unmarked) [Example 112, 2-fluoro-5-(1-methyl-1H-pyrazol-3-yl)-N-(2-(2-oxo-2-(((tetrahydrofuran-3-yl)methyl)amino)ethyl)-4-phenylpyrimidin-5-yl)-4-(trifluoromethyl)benzamide] the value was 6.5 nM; for `Cn1ccc(-c2cc(C(=O)Nc3cnc(CC(=O)NC4CCC4)nc3-c3ccccc3)c(F)cc2C(F)(F)F)n1` [Example 113, N-(2-(2-(cyclobutylamino)-2-oxoethyl)-4-phenylpyrimidin-5-yl)-2-fluoro-5-(1-methyl-1H-pyrazol-3-yl)-4-(trifluoromethyl)benzamide], 1.3 nM; for `Cn1ccc(-c2cc(C(=O)Nc3cnc(CC(=O)N4CCNCC4)nc3-c3ccccc3)c(F)cc2C(F)(F)F)n1` [Example 114, 2-fluoro-5-(1-methyl-1H-pyrazol-3-yl)-N-(2-(2-oxo-2-(piperazin-1-yl)ethyl)-4-phenylpyrimidin-5-yl)-4-(trifluoromethyl)benzamide], 3 nM. For `CCN(C)C(=O)Cc1ncc(NC(=O)c2cc(-c3ccn(C)n3)c(C(F)(F)F)cc2F)c(-c2ccccc2)n1` [Example 115, N-(2-(2-(ethyl(methyl)amino)-2-oxoethyl)-4-phenylpyrimidin-5-yl)-2-fluoro-5-(1-methyl-1H-pyrazol-3-yl)-4-(trifluoromethyl)benzamide] the value was 2.6 nM; for `Cn1ccc(-c2cc(C(=O)Nc3cnc(CC(N)=O)nc3-c3ccccc3)ccc2C(F)(F)F)n1` [Example 116, N-(2-(2-amino-2-oxoethyl)-4-phenylpyrimidin-5-yl)-3-(1-methyl-1H-pyrazol-3-yl)-4-(trifluoromethyl)benzamide], 9.8 nM.

These data come from patent US9815846B2 (Merck Sharp & Dohme Corp., priority 2014, dated 2017).
